Experimental data taken from patent US9649300B2, “Inhibition of WNT, TGF beta and Hippo signaling pathways to treat cancer, organ fibrosis and metabolic disorders” (University of Pittsburgh—of the Commonwealth System of …, priority 2013, dated 2017).

Experiments:
[1] = test system: Hippo pathway; assay: TEAD luciferase reporter (8xGT-II) as readout for Hippo signaling; assay type: cell-based; settings: for inhibition of Hippo signaling: FIG. 8; for activity of Hippo reporter: FIG. 5
Experimental: (§1) FIGS. 1A-1C. Screening for small molecules inhibitors of the Hippo pathway. FIG. 1A. Hippo associated luciferase reporter (8xGT-II) was used to screen a series of 30 thiadiazole derivatives. Cells transfected with the construct were incubated in the absence (c) or presence of the compounds at 10 μM for 24 hours. Luciferase activity expressed in arbitrary units (AU) was measured in protein extracts. Data represent average for three replicates ±SE. FIG. 1B. Structure of S21 compound. FIG. 1C. Activity of S21 on Hippo versus CMV-Luciferase reporter measured as described above.
(§2) FIG. 2. S21 as a common inhibitor of Wnt, TGF beta and Hippo. 293 cells were transfected with luciferase reporters corresponding to each pathway and then exposed to S21, the Wnt inhibitor Pyrvinium (PYR) or the TGF beta inhibitor SB-431 at the indicated concentrations. After 24 hours, the cells were lysed and luciferase activity measured. Data represent average of three replicates ±SE.
(§3) FIG. 5. Effect of S21 versus Pirfenidone on activity of Wnt, TGF beta and Hippo reporters. 293 cells were transfected with luciferase reporters corresponding to the three pathways and then incubated with the indicated concentration of S21 or Pirfenidone for 24 hours. Luciferase activity was measured in the protein extract. Each point represents average of three determinations ±SE.
(§4) A TEAD luciferase reporter system was used as a readout for Hippo signaling, to screen a series of thiadiazole derivatives synthesized in our laboratory. For this, 293 cells transfected with the reporter construct were incubated in the absence or the presence of individual compounds at 10 μM concentration each for 24 hours. Proteins were then extracted and used as a source of enzyme of luciferase activity.

[2] = test system: melanoma cells WM266; assay: Tumor xenograft mouse model; assay type: in vivo
Experimental: FIGS. 9A-9B. Effect of C19 (mg/Kg) on tumor growth (FIG. 9A) and body weight (FIG. 9B). Data represents 7 replicates ±SE. *p<0.05., **p<0.01.
To obtain information regarding the efficacy of C19 in a tumor xenograft mouse model, nude mice (strain CD1) were injected subcutaneously with melanoma cells WM266. After tumors became palpable (˜5 mm in diameter), the mice were randomized into control and treatment groups (n=7). The control group was injected intraperitoneally with the vehicle (DMSO 3% in 200 μl of DMEM) and the treatment groups were injected with increasing doses of C19 (in mg/Kg) dissolved in 200 μl of vehicle solution. The animals received 3 injections starting on day 15 and separated by three days. Tumor volumes and body weight were measured on a daily basis.

[3] = test system: AMPK; assay: Phosphorylation (activation) of AMPK; assay type: cell-based; settings: for activation of AMPK: FIG. 8
Experimental: (§5) FIGS. 10A-10F. FIGS. 10A and 10B. Dose and time dependent effects of C19 on phosphorylation of AMPK. In FIG. 10B, C19 was used at 5 μM. FIG. 10C. Effect of AICAR on phosphorylation of AMPK. FIG. 10D. Confirmation in different cell lines. FIGS. 10E and 10F. Effect of C19 on phosphorylation of downstream AMPK targets ACC and UIK1.
(§6) Investigation of the mechanism by which C19 exert its activity led to the discovery that, in addition to its effect on MST/Lats, this compound acts as a potent activator of the metabolic enzyme and tumor suppressor kinase AMPK (FIG. 10).

[4] = test system: ACC; assay: Phosphorylation of downstream AMPK target ACC; assay type: cell-based; settings: FIG. 10E
Experimental: as §5, §6

[5] = test system: Ulk1; assay: Phosphorylation of downstream AMPK target Ulk1; assay type: cell-based; settings: FIG. 10F
Experimental: as §5, §6

[6] = test system: luciferase driven by the CMV promoter; assay: CMV-Luciferase reporter (specificity control); assay type: cell-based
Experimental: as §1, §4

[7] = test system: Wnt; assay: Wnt luciferase reporter in 293 cells; assay type: cell-based; settings: for activity of Wnt reporter: FIG. 5
Experimental: as §2, §3
(§7) By comparison, none of Wnt or TGF beta inhibitors had affected the Hippo pathway reporter.

[8] = test system: TGF beta; assay: TGF beta luciferase reporter in 293 cells; assay type: cell-based; settings: for activity of TGF beta reporter: FIG. 5
Experimental: as §2, §3, §7

[9] = target: T1, MST1 (Homo sapiens, UniProt Q13043); assay: Western blot, phosphorylation of core kinase MST1; assay type: cell-based; settings: dose-dependent, FIG. 3A
T1 construct: endogenous in cells
T1 sequence (Q13043 1-487): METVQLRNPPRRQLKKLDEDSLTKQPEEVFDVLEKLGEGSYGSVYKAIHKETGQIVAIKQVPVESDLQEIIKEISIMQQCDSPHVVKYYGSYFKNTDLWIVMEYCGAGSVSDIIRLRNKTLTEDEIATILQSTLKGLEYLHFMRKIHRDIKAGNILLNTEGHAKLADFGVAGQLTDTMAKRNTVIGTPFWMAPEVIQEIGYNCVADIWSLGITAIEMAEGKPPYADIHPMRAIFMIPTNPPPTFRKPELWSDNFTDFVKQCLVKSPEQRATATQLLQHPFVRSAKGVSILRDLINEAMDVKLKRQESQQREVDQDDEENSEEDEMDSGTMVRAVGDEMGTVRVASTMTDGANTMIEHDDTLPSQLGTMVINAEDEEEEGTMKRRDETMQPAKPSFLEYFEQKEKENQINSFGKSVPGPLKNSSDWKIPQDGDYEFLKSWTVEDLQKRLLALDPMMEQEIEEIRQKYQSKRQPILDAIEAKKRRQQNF
Experimental: (§8) FIGS. 3A-3B. Effect of S21 on key elements of the Hippo pathway. Western blot analysis was carried out to determine the effect of S21 on expression and phosphorylation of MST/Lats (FIG. 3A) and nucleocytoplasmic localization of YAP and beta catenin (FIG. 3B).
(§9) To gain insights into the mechanism(s) by which S21 inhibits the Hippo pathway, its effect on activation of the core kinases MST1 and Lats1 was analyzed.

[10] = target: T2, Lats1 (Homo sapiens, UniProt O95835); assay: Western blot, phosphorylation of core kinase Lats1; assay type: cell-based; settings: dose-dependent, FIG. 3A
T2 construct: endogenous in cells
T2 sequence (O95835 1-1130): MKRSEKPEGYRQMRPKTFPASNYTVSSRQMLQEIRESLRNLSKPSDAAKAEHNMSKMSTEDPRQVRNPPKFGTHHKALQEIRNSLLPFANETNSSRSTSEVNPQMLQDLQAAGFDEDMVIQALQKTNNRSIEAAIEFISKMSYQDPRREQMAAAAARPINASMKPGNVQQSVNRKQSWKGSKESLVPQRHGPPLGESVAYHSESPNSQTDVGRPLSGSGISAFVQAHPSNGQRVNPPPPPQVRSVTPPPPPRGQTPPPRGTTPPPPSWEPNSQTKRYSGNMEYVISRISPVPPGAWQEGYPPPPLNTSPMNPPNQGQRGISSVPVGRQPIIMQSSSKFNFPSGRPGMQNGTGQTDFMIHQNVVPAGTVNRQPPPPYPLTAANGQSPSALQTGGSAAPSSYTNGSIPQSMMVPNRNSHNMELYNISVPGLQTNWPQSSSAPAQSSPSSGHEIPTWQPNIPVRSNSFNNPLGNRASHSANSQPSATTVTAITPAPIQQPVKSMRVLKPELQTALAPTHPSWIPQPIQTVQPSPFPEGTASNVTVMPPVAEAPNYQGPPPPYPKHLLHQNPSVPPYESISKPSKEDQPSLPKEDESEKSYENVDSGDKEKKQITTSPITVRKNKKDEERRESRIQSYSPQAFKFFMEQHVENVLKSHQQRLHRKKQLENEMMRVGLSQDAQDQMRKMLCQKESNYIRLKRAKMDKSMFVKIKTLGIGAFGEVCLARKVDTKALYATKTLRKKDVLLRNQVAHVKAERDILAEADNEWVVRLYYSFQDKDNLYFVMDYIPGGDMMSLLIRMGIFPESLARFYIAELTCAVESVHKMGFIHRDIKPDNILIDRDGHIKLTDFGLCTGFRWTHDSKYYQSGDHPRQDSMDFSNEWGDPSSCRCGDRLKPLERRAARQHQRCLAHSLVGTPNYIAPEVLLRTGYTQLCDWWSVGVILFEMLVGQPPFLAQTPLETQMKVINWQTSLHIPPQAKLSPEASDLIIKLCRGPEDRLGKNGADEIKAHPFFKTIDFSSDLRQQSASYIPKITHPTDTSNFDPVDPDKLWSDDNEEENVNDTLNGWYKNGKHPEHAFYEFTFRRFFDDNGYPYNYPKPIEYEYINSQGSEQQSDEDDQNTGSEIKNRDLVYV
Experimental: as §8, §9

[11] = test system: YAP; assay: Western blot, nucleocytoplasmic localization of YAP; assay type: cell-based; settings: FIG. 3B
Experimental: as §8, §9

[12] = test system: beta catenin; assay: Western blot, nucleocytoplasmic localization of beta catenin; assay type: cell-based; settings: FIG. 3B
Experimental: as §8, §9

[13] = test system: melanoma cells WM266; assay: Western blots of EMT genes and downstream target genes; assay type: cell-based; settings: WM266, 24 hours
Experimental: (§10) FIGS. 4A-4D. Inhibition of EMT, cell migration, proliferation and resistance to therapy by S21. FIG. 4A. Western blots showing inhibition of various EMT genes in melanoma cells WM266 exposed to the indicated concentrations of S21 for 24 hours. FIG. 4B. Cell monolayer scratch assay depicting inhibition of cell migration by S21. FIG. 4C. Effect of S21 on cell proliferation measured after 5 days of incubation. FIG. 4D. Cell response to doxorubicin was measured in the presence of and absence of S21. Data in panels C and D represent average of three determinations ±SE.
(§11) Future studies will be needed to elucidate the underlying mechanism.

[14] = test system: cell migration; assay: Cell monolayer scratch assay; assay type: cell-based; settings: FIG. 4B
Experimental: as §10, §11

[15] = test system: three melanoma and one colon cancer cell lines; assay: Cell proliferation after 5 days of incubation; assay type: cell-based
Experimental: as §10, §11

[16] = test system: melanoma cell; assay: Cell response to doxorubicin with and without S21; assay type: cell-based; settings: FIG. 4D
Experimental: as §10, §11

[17] = test system: fibroblasts; assay: Expression of fibrotic markers (QPCR, Western blot); assay type: cell-based; settings: RNA and protein level
Description: FIGS. 6A-6B. S21 inhibits expression of pro-fibrotic and pro-EMT genes. FIG. 6A. QPCR analysis depicting expression levels of pro-EMT ad fibrosis genes in the absence and the presence of S21. FIG. 6B. Western blot analysis showing the effect of S21 on expression of fibronectin, collagen and vimentin. Beta catenin was used as a loading control.

[18] = oral, eight-week-old male untrained mice; cited from earlier work
[19] = tested for up to 100 μM, data not shown

OCCCCOc1nsnc1-c1ccc(Cl)c(Cl)c1 [C19, 4-((4-(3,4-dichlorophenyl)-1,2,5-thiadiazol-3-yl)oxy)butan-1-ol]
inhibition of Hippo signaling [1]: inhibition | inhibition of tumor growth ([2]; 20 mg/Kg intraperitoneal, 3 injections from day 15): about 90% | tumor growth ([2]; intraperitoneal, increasing doses, 3 injections from day 15): suppresses tumor growth in a dose dependent manner | signs of toxicity or death ([2]; throughout the experiment): No signs of toxicity or death | body weight compared to controls ([2]; treatment groups, FIG. 9B): did not change significantly | activation of AMPK [3]: activation | potency on AMPK relative to AICAR ([3]; FIG. 10C): at least 10 times | effect on AMPK in different cell lines ([3]; FIG. 10D): validated | phosphorylation (activation) of AMPK ([3]; concentration and time dependent, FIGS. 10A and 10B): induced phosphorylation | phosphorylation of ACC [4]: induced phosphorylation | phosphorylation of Ulk1 [5]: induced phosphorylation

OCCCCOc1nsnc1-c1ccc(Cl)cc1 [S21]
inhibition of TEAD luciferase reporter activity (Hippo signaling) ([1]; 293 cells, 10 μM, 24 hours): strongest inhibition | activity of Hippo reporter ([1]; 293 cells, 24 hours): dose dependent inhibition | inhibition of Hippo signaling [1]: inhibition | inhibition of luciferase driven by the CMV promoter [6]: did not inhibit | inhibition of Wnt signaling reporter ([7]; 293 cells, 24 hours, FIG. 2): remarkably inhibited | activity of Wnt reporter ([7]; 293 cells, 24 hours): dose dependent inhibition | inhibition of TGF beta signaling reporter ([8]; 293 cells, 24 hours, FIG. 2): remarkably inhibited | activity of TGF beta reporter ([8]; 293 cells, 24 hours): dose dependent inhibition | phosphorylation of MST1 [9]: induced phosphorylation | phosphorylation of Lats1 [10]: induced phosphorylation | nuclear and cytoplasmic levels of YAP [11]: reduced nuclear localization and enhanced cytoplasmic levels | nuclear and cytoplasmic levels of beta catenin [12]: reduced nuclear localization and enhanced cytoplasmic levels | expression of EMT-associated gene Zeb1 [13]: strongly inhibits | level of Cyclin D [13]: reduced | level of Hes [13]: reduced | level of Myc [13]: reduced | cell migration [14]: strongly inhibited | response of metastatic WM266 versus non-metastatic WM115 ([15]; melanoma cell lines): responded better | anti-proliferative action ([15]; three melanoma and one colon cancer cell lines): anti-proliferative action | melanoma cell response to doxorubicin in presence of compound [16]: significantly enhanced | expression of Collagen [17]: dose dependent decrease | expression of Finbronectin [17]: dose dependent decrease | activation of AMPK [3]: activation

Cc1ccc(=O)n(-c2ccccc2)c1 [Pirfenidone, reference compound]
activity of Hippo reporter ([1]; 293 cells, 24 hours): without effect | inhibition of Hippo reporter [1, 19]: no inhibition was detected | activity of Wnt reporter ([7]; 293 cells, 24 hours): without effect | inhibition of Wnt reporter [7, 19]: no inhibition was detected | activity of TGF beta reporter ([8]; 293 cells, 24 hours): without effect | inhibition of TGF beta reporter [8, 19]: no inhibition was detected

NC(=O)c1ncn([C@@H]2O[C@H](CO)[C@@H](O)[C@H]2O)c1N [AICAR, 5-aminoimidazole-4-carboxamide 1-D-ribonucleoside]
increase in endurance without exercise [18]: 44%
